This note sets out measurements from patent US20160304461A1, “QUINOLONE COMPOUND AND PHARMACEUTICAL COMPOSITION” (OTSUKA PHARMACEUTICAL CO., LTD., priority 2007, published 2016).

As for `CCCOc1ccc(F)c2c(=O)c(-c3cc(OC)ccc3OC)c[nH]c12` [Example 65, 3-(2,5-Dimethoxyphenyl)-5-fluoro-8-propoxy-1H-quinolin-4-one], the melting point lay within 156 to 157 °C.

Compound `CCCOc1ccc(F)c2c(=O)c(-c3ccco3)c(C(F)(F)F)[nH]c12` [Example 78, 5-Fluoro-3-furan-2-yl-8-propoxy-2-trifluoromethyl-1H-quinolin-4-one] had a melting point of 134 to 136 °C.

`CCCOc1ccc(F)c2c(=O)c(-c3ccco3)c(C)[nH]c12` [Example 76, 5-Fluoro-3-furan-2-yl-2-methyl-8-propoxy-1H-quinolin-4-one] yielded a melting point of 203 to 204 °C.

Compound `CCCOc1ccc(F)c2c(=O)c(-c3ccc(OC)cc3)c(C(C)C)[nH]c12` [Example 83, 5-Fluoro-2-isopropyl-3-(4-methoxyphenyl)-8-propoxy-1H-quinolin-4-one] registered a melting point of 195 to 197 °C.

`CCCOc1ccc(F)c2c(=O)c(-c3ccco3)c(C(C)C)[nH]c12` [Example 84, 5-Fluoro-3-furan-2-yl-2-isopropyl-8-propoxy-1H-quinolin-4-one]: the melting point was 113 to 114 °C.

Consider `CCOc1ccc(F)c2c(=O)c(-c3ccc(OC)cc3)c[nH]c12` [Example 11, 8-Ethoxy-5-fluoro-3-(4-methoxyphenyl)-1H-quinolin-4-one], for which the melting point was in the range of 155 to 156 °C.

As to `CCCOc1ccc(F)c2c(=O)c(-c3ccc(Oc4ccccc4)cc3)c[nH]c12` [Example 52, 5-Fluoro-3-(4-phenoxyphenyl)-8-propoxy-1H-quinolin-4-one], the melting point was 228 to 230 °C.

`CCCOc1ccc(F)c2c(=O)c(-c3ccc(OC)cc3)c(CC)[nH]c12` [Example 48, 2-Ethyl-5-fluoro-3-(4-methoxyphenyl)-8-propoxy-1H-quinolin-4-one]: the melting point was in the range of 169 to 171 °C.

For the compound `CCCOc1ccc(F)c2c(=O)c(-c3cccnc3)c[nH]c12` [Example 49, 5-Fluoro-8-propoxy-3-pyridin-3-yl-1H-quinolin-4-one], the melting point is 234 to 236 °C.

Regarding `COc1ccc(-c2c[nH]c3c(OCCCNS(C)(=O)=O)ccc(F)c3c2=O)cc1` [Example 27, N-{3-[5-Fluoro-3-(4-methoxyphenyl)-4-oxo-1,4-dihydroquinolin-8-yloxy]propyl}methanesulfonamide], the melting point was in the range of 120 to 121 °C.

Compound `CCCOc1ccc(F)c2c(=O)c(-c3ccc(OCC)cc3)c[nH]c12` [Example 33, 3-(4-Ethoxyphenyl)-5-fluoro-8-propoxy-1H-quinolin-4-one] showed a melting point of 203 to 205 °C.

With `COc1ccc(-c2c[nH]c3c(C(=O)N4CCCC4)ccc(F)c3c2=O)cc1` [Example 23, 5-Fluoro-3-(4-methoxyphenyl)-8-(pyrrolidin-1-carbonyl)-1H-quinolin-4-one], the melting point fell in the range of 236 to 237 °C.

For the compound `COc1ccc(-c2c[nH]c3c(N4CCCC4)ccc(F)c3c2=O)cc1` [Example 18, 5-Fluoro-3-(4-methoxyphenyl)-8-pyrrolidin-1-yl-1H-quinolin-4-one], the melting point lay in the range of 100 to 105 °C.

`COc1ccc(-c2c[nH]c3c(Br)ccc(F)c3c2=O)cc1` [Example 22, 8-Bromo-5-fluoro-3-(4-methoxyphenyl)-1H-quinolin-4-one] came in with a melting point of 134 to 135 °C.

`COc1ccc(-c2c[nH]c3c(OCC4CCC4)ccc(F)c3c2=O)cc1` [Example 41, 8-Cyclobutylmethoxy-5-fluoro-3-(4-methoxyphenyl)-1H-quinolin-4-one] gave a melting point of 193 to 194 °C.

`CCCOc1ccc(F)c2c(=O)c(-c3ccc(OCC)c(F)c3)c[nH]c12` [Example 50, 3-(4-Ethoxy-3-fluorophenyl)-5-fluoro-8-propoxy-1H-quinolin-4-one] yielded a melting point of 176 to 177 °C.

In turn, `CCCOc1ccc(F)c2c(=O)c(-c3ccc(OC)cc3)c(C)[nH]c12` [Example 67, 5-Fluoro-3-(4-methoxyphenyl)-2-methyl-8-propoxy-1H-quinolin-4-one] gave a melting point of 211 to 212 °C.

What is called melting point is the temperature, or range, at which the solid turns liquid.
